pIC50: −log10 of the molar value.
Columns and labels:
alphavbeta1 = alphavbeta1 (Homo sapiens, UniProt G3HZ55+P06756); experiment: Cell adhesion assay, alphavbeta1-mediated (CHO cells transfected with human alphav adhering to the latency associated peptide of TGF-beta); format: cell-based; details: adhesion to LAP of TGF-beta
Experimental: The blockade of integrin alpha 5 beta 1 provides a novel target for the treatment of asthma. […] The intracellular actin-myosin cross-bridging pathway serves as a useful target. Modulating the interactions of the cell and the extracellular matrix impairs the ability of the smooth muscle to transmit tension effectively. The blockade of integrin alpha 5 beta 1 was tested in vitro with human cell lines as well as in vivo with a mouse model of airway hyperresponsiveness. Novel compounds as described herein, and identified in Table 1, have been synthesized and tested in vitro for their ability to inhibit cell adhesion mediated by either alpha5beta1 (adhesion of the colon carcinoma cell line SW480 to fibronectin, a response that is entirely dependent on binding of alpha5beta1 to fibronectin), or alphavbeta1 (adhesion of Chinese Hamster Ovary cells transfected with human alphav to the latency associated peptide of transforming growth factor beta, a response that is entirely dependent on binding of alphavbeta1 to LAP).

alpha5beta1 = alpha5beta1 (Homo sapiens (Human), UniProt P05556+P08648); experiment: Cell adhesion assay, alpha5beta1-mediated (colon carcinoma cell line SW480 adhering to fibronectin); format: cell-based; details: SW480 cells
Experimental: The blockade of integrin alpha 5 beta 1 was tested in vitro with human cell lines as well as in vivo with a mouse model of airway hyperresponsiveness.

Sequence of alphavbeta1 (G3HZ55 21-798 limits assumed): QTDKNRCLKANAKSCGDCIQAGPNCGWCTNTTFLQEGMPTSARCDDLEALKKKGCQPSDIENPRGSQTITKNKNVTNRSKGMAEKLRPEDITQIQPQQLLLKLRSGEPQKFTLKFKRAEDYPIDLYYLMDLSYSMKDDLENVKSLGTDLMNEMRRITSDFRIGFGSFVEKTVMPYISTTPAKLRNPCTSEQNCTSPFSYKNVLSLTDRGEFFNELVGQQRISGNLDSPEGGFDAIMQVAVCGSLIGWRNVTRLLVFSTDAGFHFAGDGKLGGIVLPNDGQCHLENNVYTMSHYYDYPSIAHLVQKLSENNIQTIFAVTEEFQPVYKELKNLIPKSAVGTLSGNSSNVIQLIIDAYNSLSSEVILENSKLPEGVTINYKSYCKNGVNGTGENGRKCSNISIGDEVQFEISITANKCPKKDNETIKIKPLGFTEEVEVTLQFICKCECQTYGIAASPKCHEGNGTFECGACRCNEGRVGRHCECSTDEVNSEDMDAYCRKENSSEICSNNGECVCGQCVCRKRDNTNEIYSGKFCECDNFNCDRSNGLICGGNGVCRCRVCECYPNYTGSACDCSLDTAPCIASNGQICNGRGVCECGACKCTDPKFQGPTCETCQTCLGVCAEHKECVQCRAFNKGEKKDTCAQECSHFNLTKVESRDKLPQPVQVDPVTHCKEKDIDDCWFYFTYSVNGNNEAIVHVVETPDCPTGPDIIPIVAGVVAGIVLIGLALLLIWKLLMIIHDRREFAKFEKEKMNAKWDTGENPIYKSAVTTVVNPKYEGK
Sequence of alphavbeta1 (P06756 31-889 limits assumed): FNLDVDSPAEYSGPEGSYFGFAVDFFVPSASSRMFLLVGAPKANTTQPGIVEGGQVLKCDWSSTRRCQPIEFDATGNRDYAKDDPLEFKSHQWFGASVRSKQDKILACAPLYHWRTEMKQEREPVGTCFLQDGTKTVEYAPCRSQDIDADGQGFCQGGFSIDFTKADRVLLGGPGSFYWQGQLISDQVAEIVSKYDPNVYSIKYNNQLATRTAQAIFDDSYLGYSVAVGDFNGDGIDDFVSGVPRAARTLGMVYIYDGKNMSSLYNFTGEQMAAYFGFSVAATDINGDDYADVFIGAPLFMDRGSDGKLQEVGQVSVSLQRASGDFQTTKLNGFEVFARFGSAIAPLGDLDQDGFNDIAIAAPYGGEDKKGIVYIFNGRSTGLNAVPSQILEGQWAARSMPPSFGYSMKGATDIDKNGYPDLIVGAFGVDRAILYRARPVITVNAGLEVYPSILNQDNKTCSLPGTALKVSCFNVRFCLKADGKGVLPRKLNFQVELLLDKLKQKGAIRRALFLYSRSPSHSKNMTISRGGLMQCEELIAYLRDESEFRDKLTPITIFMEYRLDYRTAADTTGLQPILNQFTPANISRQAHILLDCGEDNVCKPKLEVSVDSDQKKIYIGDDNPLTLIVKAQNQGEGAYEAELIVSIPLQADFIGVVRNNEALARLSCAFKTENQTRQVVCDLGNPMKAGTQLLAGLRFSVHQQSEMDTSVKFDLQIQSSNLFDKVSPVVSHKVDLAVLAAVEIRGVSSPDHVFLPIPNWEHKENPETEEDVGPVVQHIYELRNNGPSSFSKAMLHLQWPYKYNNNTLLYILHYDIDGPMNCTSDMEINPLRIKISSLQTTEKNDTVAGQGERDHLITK
Sequence of alphavbeta1 (P06756 891-1048 limits assumed): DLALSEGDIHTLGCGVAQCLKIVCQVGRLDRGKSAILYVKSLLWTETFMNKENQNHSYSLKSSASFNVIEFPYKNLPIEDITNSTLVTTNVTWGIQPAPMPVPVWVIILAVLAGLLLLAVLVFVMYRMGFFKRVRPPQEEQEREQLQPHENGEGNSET
Sequence of alpha5beta1 (P08648 42-894): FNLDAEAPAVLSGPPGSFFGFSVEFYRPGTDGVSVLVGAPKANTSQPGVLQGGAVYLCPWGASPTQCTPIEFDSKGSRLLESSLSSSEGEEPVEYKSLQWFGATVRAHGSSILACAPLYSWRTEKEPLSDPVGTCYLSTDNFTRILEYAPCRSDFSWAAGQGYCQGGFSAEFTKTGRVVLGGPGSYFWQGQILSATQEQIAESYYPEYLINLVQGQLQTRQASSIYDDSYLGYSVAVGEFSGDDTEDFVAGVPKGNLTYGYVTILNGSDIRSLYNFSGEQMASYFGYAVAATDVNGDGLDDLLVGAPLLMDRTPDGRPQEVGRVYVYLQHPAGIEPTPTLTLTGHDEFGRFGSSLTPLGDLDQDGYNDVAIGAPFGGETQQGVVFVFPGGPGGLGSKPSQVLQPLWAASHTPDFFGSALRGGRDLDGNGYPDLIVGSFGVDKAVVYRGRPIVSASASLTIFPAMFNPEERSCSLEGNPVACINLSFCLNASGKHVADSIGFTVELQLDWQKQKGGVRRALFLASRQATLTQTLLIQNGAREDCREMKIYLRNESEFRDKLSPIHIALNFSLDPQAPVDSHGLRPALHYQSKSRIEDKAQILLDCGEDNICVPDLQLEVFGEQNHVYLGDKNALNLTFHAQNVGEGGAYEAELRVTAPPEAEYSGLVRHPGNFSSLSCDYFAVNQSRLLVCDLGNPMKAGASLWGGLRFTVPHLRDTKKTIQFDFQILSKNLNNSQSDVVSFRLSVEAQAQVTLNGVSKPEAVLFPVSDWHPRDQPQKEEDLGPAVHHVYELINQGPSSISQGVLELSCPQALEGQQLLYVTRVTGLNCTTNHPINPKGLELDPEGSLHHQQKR
Sequence of alpha5beta1 (P08648 895-1049): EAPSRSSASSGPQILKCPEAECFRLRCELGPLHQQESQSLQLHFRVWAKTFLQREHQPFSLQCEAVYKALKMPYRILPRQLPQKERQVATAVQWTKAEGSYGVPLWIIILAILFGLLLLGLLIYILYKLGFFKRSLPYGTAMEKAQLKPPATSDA
Sequence of alpha5beta1 (P05556 21-798): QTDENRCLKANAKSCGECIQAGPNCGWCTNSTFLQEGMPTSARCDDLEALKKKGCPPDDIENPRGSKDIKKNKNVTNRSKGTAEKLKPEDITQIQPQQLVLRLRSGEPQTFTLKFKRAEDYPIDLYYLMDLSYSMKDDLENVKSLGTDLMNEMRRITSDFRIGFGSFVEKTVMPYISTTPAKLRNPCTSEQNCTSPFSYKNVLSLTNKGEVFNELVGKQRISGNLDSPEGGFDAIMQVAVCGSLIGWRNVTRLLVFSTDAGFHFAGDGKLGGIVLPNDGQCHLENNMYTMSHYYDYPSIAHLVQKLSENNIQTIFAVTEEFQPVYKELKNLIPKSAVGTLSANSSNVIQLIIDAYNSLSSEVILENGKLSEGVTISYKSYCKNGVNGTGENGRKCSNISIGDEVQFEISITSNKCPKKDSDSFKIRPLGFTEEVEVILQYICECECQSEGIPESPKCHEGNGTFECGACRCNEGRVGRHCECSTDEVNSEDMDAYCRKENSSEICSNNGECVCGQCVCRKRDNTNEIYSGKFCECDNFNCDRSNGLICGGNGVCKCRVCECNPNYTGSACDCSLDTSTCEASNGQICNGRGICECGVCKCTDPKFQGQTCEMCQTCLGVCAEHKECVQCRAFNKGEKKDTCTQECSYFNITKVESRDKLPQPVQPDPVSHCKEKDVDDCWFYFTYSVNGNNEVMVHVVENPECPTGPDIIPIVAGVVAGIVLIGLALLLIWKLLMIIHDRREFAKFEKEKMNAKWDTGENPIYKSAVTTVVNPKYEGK

Row | Structure (SMILES) | pIC50 (alpha5beta1) | pIC50 (alphavbeta1)
1 | N=C(N)Nc1cccc(C(=O)NCC(=O)NC[C@H](NC(=O)[C@@H]2CCCN2S(=O)(=O)c2ccccc2)C(=O)O)c1 [HIJ-1094, (S)-3-(2-(3-guanidinobenzamido)acetamido)-2-((S)-1-(phenylsulfonyl)pyrrolidine-2-carboxamido)propanoic acid] | > 7.00 | > 7.00
2 | N=C(N)NCCCCCCNC(=O)NC[C@H](NC(=O)[C@@H]1CCCN1S(=O)(=O)c1ccccc1)C(=O)O [HIJ-1018, (S)-3-(3-(6-guanidinohexyl)ureido)-2-((S)-1-(phenylsulfonyl)pyrrolidine-2-carboxamido)propanoic acid] | 5.00 to 7.00 | > 7.00
3 | N=C(N)NCCCCCNC(=O)NC[C@H](NC(=O)[C@@H]1CCCN1S(=O)(=O)c1ccccc1)C(=O)O [HIJ-1017, (S)-3-(3-(5-guanidinopentyl)ureido)-2-((S)-1-(phenylsulfonyl)pyrrolidine-2-carboxamido)propanoic acid] | 5.00 to 7.00 | > 7.00
4 | N=C(N)NCCCCNC(=O)NC[C@H](NC(=O)[C@@H]1CCCN1S(=O)(=O)c1ccccc1)C(=O)O [HIJ-1016, (S)-3-(3-(4-guanidinobutyl)ureido)-2-((S)-1-(phenylsulfonyl)pyrrolidine-2-carboxamido)propanoic acid] | 5.00 to 7.00 | > 7.00
5 | N=C(N)NCCCCC(=O)N[C@@H](CCCCNC(=S)Nc1ccc(C2c3ccc(O)cc3OC3=CC(=O)C=CC32)c(C(=O)O)c1)C(=O)NC[C@H](NC(=O)[C@@H]1CCCN1S(=O)(=O)c1ccccc1)C(=O)O (stereo partly drawn) [HIJ-1216, 5-(3-((S)-6-(((S)-2-carboxy-2-((S)-1-(phenylsulfonyl)pyrrolidine-2-carboxamido)ethyl)amino)-5-(5-guanidinopentanamido)-6-oxohexyl)thioureido)-2-(6-hydroxy-3-oxo-9,9a-dihydro-3H-xanthen-9-yl)benzoic acid] | < 5.00 | < 5.00
6 | N=C(N)Nc1cc(NC(=O)CCCNC(=O)C23CC4CC(CC(C4)C2)C3)cc(C(=O)NCC(=O)NC[C@H](NC(=O)[C@@H]2CCCN2S(=O)(=O)c2ccccc2)C(=O)O)c1 [HIJ-1483, (2S)-3-(2-(3-(4-((1s,3s)-adamantane-1-carboxamido)butanamido)-5-guanidinobenzamido)acetamido)-2-((S)-1-(phenylsulfonyl)pyrrolidine-2-carboxamido)propanoic acid] | > 7.00 | 

Second part, led by results:

Row | pIC50 (alpha5beta1) | Structure (SMILES) | pIC50 (alphavbeta1)
7 | 5.00 to 7.00 | O=C(CNC(=O)c1cccc(Nc2ccccn2)c1)NC[C@H](NC(=O)[C@@H]1CCCN1S(=O)(=O)c1ccccc1)C(=O)O [HIJ-1093] | 5.00 to 7.00
8 | > 7.00 | N=C(N)Nc1cc(NC(=O)CCCN)cc(C(=O)NCC(=O)NC[C@H](NC(=O)[C@@H]2CCCN2S(=O)(=O)c2ccccc2)C(=O)O)c1 [HIJ-1437, (S)-3-(2-(3-(4-aminobutanamido)-5-guanidinobenzamido)acetamido)-2-((S)-1-(phenylsulfonyl)pyrrolidine-2-carboxamido)propanoic acid] | 
9 | 5.00 to 7.00 | N=C(N)NCCCCCC(=O)NC[C@H](NC(=O)[C@@H]1CCCN1S(=O)(=O)c1ccccc1)C(=O)O [HIJ-1083, (S)-3-(6-guanidinohexanamido)-2-((S)-1-(phenylsulfonyl)pyrrolidine-2-carboxamido)propanoic acid] | 5.00 to 7.00
10 | > 7.00 | N=C(N)Nc1cccc(C(=O)NNC(=O)NC[C@H](NC(=O)[C@@H]2CCCN2S(=O)(=O)c2ccccc2)C(=O)O)c1 [HIJ-1099, (S)-3-(2-(3-guanidinobenzoyl)hydrazine-1-carboxamido)-2-((S)-1-(phenylsulfonyl)pyrrolidine-2-carboxamido)propanoic acid] | 5.00 to 7.00

— patent US10836720B2, “Inhibitors of integrin alpha 5 beta 1 and methods of use” (The Regents of the University of California, priority 2016, dated 2020)
